This is an account of results in patent US20100056791A1, “Pyrazolopyridine carboxamide derivative and phosphodiesterase (pde) inhibitor containing the same” (priority 2006, published 2010).

For assay [1], the target named is T1, PDE4B catalytic domain (PDE4Bcat) (Homo sapiens, UniProt Q07343).
T1 construct: The cDNA of PDE4B catalytic domain (hereinafter abbreviated as Cat) was isolated from human RNA by RT-PCR; made in house; host or cells: Sf9 insect cells (baculovirus, Gateway / Bac-to-Bac)
As to the kind of experiment: Phosphodiesterase inhibitory activity ([3H]cAMP breakdown, recombinant PDE4Bcat). It counts as biochemical. As to conditions: 30° C. 20 minutes, read-out: IC50(μmol/L) PDE4. An excerpt: The cDNA of PDE4B catalytic domain (hereinafter abbreviated as Cat) was isolated from human RNA by RT-PCR. The isolated cDNA fragments were inserted into Sf9 insect cells using Gateway system (product of Invitrogen Corporation) and Bac-to-Bac (registered trademark) Baculovirus Expression system (product of Invitrogen Corporation) to express a target PDE protein. The recombinant PDE4Bcat was purified from the culture supernatants or cell extracts of Sf9 cells expressing high levels of the PDE protein by ion exchange chromatography and was used for the following experiments.
A 4 mmol/L solution of each test compound was serially diluted four-fold with a 15% DMSO solution to prepare solutions with concentrations of 15 nmol/L to 4 mmol/L (the final concentrations used in the experiments were 1.5 nmol/L to 400 μmol/L). 10 μL of the prepared test compound solutions, [3H] cAMP diluted with a buffer solution (40 mmol/L Tris-HCl (pH: 7.4), 10 mmol/L MgCl2), and 40 μL of the recombinant human PDE protein (2×10^−6 units, 1 unit is defined as the amount of PDE that breaks down 1 μmol/L of cAMP in one minute under the conditions of a pH of 7.5 and 30° C.) were added to a 96-well plate. The mixtures were reacted at 30° C. for 20 minutes. Then, the resultant mixtures were reacted at 65° C. for 2 minutes. Subsequently, 25 μL of 1 mg/mL5′-nucleotidase (Crotalus atrox venom, product of Sigma) was added to the mixtures, and the mixtures were reacted at 30° C. for 10 minutes. After completion of the reaction, 200 μL of a solution of Dowex (300 mg/mL Dowex 1×8-400 (product of Sigma Aldrich), 33% ethanol) was added to the mixtures, and the mixtures were shaken at 4° C. for 20 minutes. Subsequently, 200 μL of MicroScint 20 (product of Packard) was added to the mixtures, and measurement was performed using a scintillation counter (Topcount, product of Packard). IC50 values were calculated using Graph Pad Prism v3.03 (product of GraphPad Software). When […], the results were represented by “+.” When 0.1 μmol/L>the IC50 value, the results were represented by “++.”

For assay [2], the system named is LPS-induced leukocytes in bronchoalveolar lavage fluid. The experiment in a line: LPS acute inflammation model in rats (total leukocytes in BALF). It counts as in vivo. Conditions: 1 mg/kg orally one hour before LPS inhalation, total leukocytes in BALF 3 hours after LPS. The protocol: 1 mg/kg of the compounds were orally administered to rats one hour before inhalation of lipopolysaccharide (LPS) from E. coli serotype 055:B5, rats were inhaled nebulizing LPS solution (50 mL) by nebulizer for 30 minutes. Then, 3 hours after the LPS inhalation, the rats were euthanized with 20% urethane (5 ml/rat, i.p.). 5 ml of physiological saline for bronchoalveolar lavage was injected into the bronchial tubes and alveoli through the airway, and the bronchial tubes and alveoli were washed 3 times using a 5 mL syringe. This procedure was repeated twice, and the solution was collected as bronchoalveolar lavage fluid (BALF). The collected BALF was centrifuged at 1,200 rpm and […] for 10 minutes (Hirtachi; himac CR 5 DL). The sediment was re-suspended in 10 mL of a 0.1% bovine serum albumin-physiological saline, and an equivalent amount of Turk's solution was added to the suspension to stain leukocytes. The total number of leukocytes was counted under a microscope to determine the inhibition ratio. When the inhibition ratio≧60%, the results were represented by “++.” When 60%>the inhibition ratio≧50%, the results were represented by “+.”

The test system of assay [3] is histamine-induced bronchoconstriction. As to the kind of experiment: Histamine-induced airway contraction reaction in guinea pigs. It is filed as in vivo. As to conditions: Cavia porcellus, iv, 0.5 min, i.v., 0.1 mg/kg administration (not in brackets), 30 seconds after administration, read-out: Inhibition ratio. The protocol: Guinea pigs were anesthetized with pentobarbital (30 mg/kg, i.p.). A cannula for intravenous administration, a cannula for collecting blood and measuring blood pressure, and a tracheal cannula were inserted into the left external jugular vein, right internal carotid artery, and trachea, respectively. The guinea pigs were maintained on artificial respiration under the conditions of 60 times/min and 10 mL/kg/stroke. The airflow from the side branch of the tracheal cannula was measured by a bronchospasm transducer (Ugo-Basile) and recorded on a computer via Power Lab (ADInstruments Japan). The guinea pigs were immobilized with gallamine (10 mg/kg, i.v.), and histamine was administered at 10-minute intervals (12.5 μg/kg, i.v.). […] We examined the inhibitory action of test compounds on histamine-induced bronchoconstriction 30 seconds after compounds administration. Bronchoconstriction was recorded as the amount of airflow, and the results were represented by the ratio of the maximum value of the histamine-induced airflow 30 seconds after the administration to the maximum value of the airflow before the administration. When the inhibition ratio≧90%, the results were represented by “+++.” When 90%>the inhibition ratio≧70%, the results were represented by “++.” When 70%>the inhibition ratio≧30%, the results were represented by “+.” The results shown in brackets are for 0.3 mg/kg administration, and the other results are for 0.1 mg/kg administration.

Some results are limits rather than exact numbers.

T1 sequence (Q07343 330-659 limits assumed): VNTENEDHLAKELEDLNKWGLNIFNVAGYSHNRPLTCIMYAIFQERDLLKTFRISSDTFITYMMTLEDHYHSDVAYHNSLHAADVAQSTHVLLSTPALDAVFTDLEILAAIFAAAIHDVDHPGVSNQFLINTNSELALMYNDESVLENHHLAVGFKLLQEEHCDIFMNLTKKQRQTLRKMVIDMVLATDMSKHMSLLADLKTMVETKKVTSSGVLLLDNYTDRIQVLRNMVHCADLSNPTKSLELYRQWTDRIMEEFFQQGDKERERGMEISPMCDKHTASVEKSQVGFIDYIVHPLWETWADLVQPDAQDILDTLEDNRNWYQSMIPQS

Turning to `CCc1cc2c(C(=O)Nc3c(Cl)cncc3Cl)ccc(OC)n2n1` [Example 9, 2-Ethyl-7-methoxypyrazolo[1,5-a]pyridine-4-carboxylic acid (3,5-dichloropyridin-4-yl)amide], the IC50 in assay [1] is less than 0.1 µmol/L. Besides, in assay [2], the Inhibition ratio result was “+ (When 60%>the inhibition ratio≧50%, the results were represented by “+.”)”. In addition, the inhibition in vivo at 0.1 mg/kg in assay [3] is 70 to 90%.

On to `COc1ccc(C(=O)Nc2c(Cl)cncc2Cl)c2cc(C(F)(F)F)nn12` [Example 16, 7-Methoxy-2-trifluoromethylpyrazolo[1,5-a]pyridine-4-carboxylic acid (3,5-dichloropyridin-4-yl)amide], for which the IC50 in assay [1] is less than 0.1 µmol/L. Besides, the Inhibition ratio result in assay [2] was “++ (When the inhibition ratio≧60%, the results were represented by “++.”)”. In assay [3], the inhibition in vivo at 0.1 mg/kg was not below 90%.

For the compound `COc1ccc(C(=O)Nc2c(Cl)cncc2Cl)c2cc(C=NO)nn12` [Example 82, 2-(Hydroxyiminomethy)-7-methoxypyrazolo[1,5-a]pyridine-4-carboxylic acid (3,5-dichloropyridin-4-yl)amide], the IC50 in assay [1] is less than 0.1 µmol/L. For the same compound, in assay [3], the inhibition in vivo at 0.1 mg/kg is 70 to 90%.

As to `COc1ccc(C(=O)Nc2c(Cl)cncc2Cl)c2cc(C#N)nn12` [Example 83, 2-Cyano-7-methoxypyrazolo[1,5-a]pyridine-4-carboxylic acid (3,5-dichloropyridin-4-yl)amide], the IC50 in assay [1] is less than 0.1 µmol/L. The inhibition in vivo at 0.1 mg/kg in assay [3] was not below 90%.

As to `CSc1ccc(C(=O)Nc2c(Cl)cncc2Cl)c2cc(C(F)(F)F)nn12` [Example 92, 7-Methylsulfanyl-2-trifluoromethylpyrazolo[1,5-a]pyridine-4-carboxylic acid (3,5-dichloropyridin-4-yl)amide], the IC50 in assay [1] is less than 0.1 µmol/L. In addition, the inhibition in vivo at 0.1 mg/kg in assay [3] was in the range of 30 to 70%.

Take `O=C(Nc1c(Cl)cncc1Cl)c1ccc(CO)n2nc(C(F)(F)F)cc12` [Example 105, 7-Hydroxymethyl-2-trifluoromethylpyrazolo[1,5-a]pyridine-4-carboxylic acid (3,5-dichloropyridin-4-yl)amide]: the IC50 in assay [1] was less than 0.1 µmol/L. Moreover, the inhibition in vivo at 0.1 mg/kg in assay [3] is not below 90%.

For `CC(O)c1ccc(C(=O)Nc2c(Cl)cncc2Cl)c2cc(C(F)(F)F)nn12` (centres unmarked) [Example 107, 7-(1-Hydroxyethyl)-2-trifluoromethylpyrazolo[1,5-a]pyridine-4-carboxylic acid (3,5-dichloropyridin-4-yl)amide], in assay [1], the IC50 was less than 0.1 µmol/L. In addition, in assay [2], the Inhibition ratio result is reported as “+ (When 60%>the inhibition ratio≧50%, the results were represented by “+.”)”. In addition, the inhibition in vivo at 0.1 mg/kg in assay [3] lay within 70 to 90%.
